Laboratory results published in article PMC10648875 (Antimicrobial Agents and Chemotherapy, 2023).
Converted amounts (≈) assume the structure as drawn.

Legend:
[1] = test system: ESBL-producing Enterobacterales; experiment: organism not typed; assay type: cell-based; conditions: for MIC50: read-out: MIC50; for MIC90: read-out: MIC90
[2] = test system: PAM4917 producing NDM-7; experiment: MIC, engineered isogenic strain; assay type: cell-based, P. aeruginosa; conditions: NDM-7, class B; BLIs at fixed 4 µg/mL
[3] = test system: Escherichia coli NCTC 13353 (ECM7514), CTX-M-15; parameters: method as in earlier work; conditions: quality control range; ref CLSI; cited from earlier work
[4] = test system: PAM4907 producing PER-4; experiment: MIC, engineered isogenic strain; assay type: cell-based, P. aeruginosa; conditions: PER-4, class A; BLIs at fixed 4 µg/mL
[5] = test system: PAM4792 producing OXA-2; experiment: MIC, engineered isogenic strain; assay type: cell-based, P. aeruginosa; conditions: OXA-2, class D; BLIs at fixed 4 µg/mL
[6] = test system: PAM4196 producing IMP-13; experiment: MIC, engineered isogenic strain; assay type: cell-based, P. aeruginosa; conditions: IMP-13, class B; BLIs at fixed 4 µg/mL
[7] = test system: Klebsiella pneumoniae ATCC 700603 (KPM2881), SHV-18; parameters: method as in earlier work; conditions: quality control range; ref CLSI; cited from earlier work
[8] = test system: K. pneumoniae ATCC BAA-2814 (KP1074), KPC-3; parameters: method as in earlier work; conditions: quality control range; ref CLSI; cited from earlier work
[9] = test system: K. pneumoniae ATCC BAA-1705 (KPM1123), KPC-2; parameters: method as in earlier work; conditions: quality control range; ref CLSI; cited from earlier work
[10] = target: IMP-1 (Serratia marcescens, UniProt P52699); experiment: Ki of metallo-β-lactamase inhibition, purified enzyme; assay type: biochemical; conditions: 10-minute preincubation; imipenem substrate; read-out: Ki
Protocol: (§1) The majority of purified β-lactamase enzymes used in the study were either expressed and purified internally ([35]) or obtained from Emerald Biostructures (Bainbridge Island, WA, USA). L1 enzyme was purified as described in reference ([36]).
(§2) Enzymes were mixed with BLIs at concentrations varying from 160 to 0.0027 µM in 50-mM Na-phosphate pH7.0, 0.1-mg/mL bovide serum albumin (BSA) (buffer A; 20-µM ZnCl2 was also added for all metalloenzymes) and incubated for 10 minutes at 37°C. Nitrocefin (50 µM) (10 µM for SHV-12) or 100 µM of imipenem (prewarmed at 37°C for 10 minutes) was added, and substrate cleavage profiles were recorded at 37°C at 490 nm every 10 seconds for 10 minutes or at 294 nm every 30 seconds for 1 hour for nitrocefin and imipenem, respectively. […] Ki app values (Ki for metalloenzymes) were calculated by the method of Waley ([37]).

[11] = target: IMP-26 (Pseudomonas aeruginosa, UniProt D0V558); experiment: as above; assay type: biochemical; conditions: 10-minute preincubation; nitrocefin substrate
Protocol: as §1, §2

[12] = target: SHV-12 (Klebsiella pneumoniae, UniProt P0AD64, E235K/G234S/L31Q); experiment: Ki app of β-lactamase inhibition, purified enzyme; assay type: biochemical; conditions: 10-minute preincubation; nitrocefin substrate; read-out: Ki app
Protocol: as §1, §2

[13] = target: OXA-48 (Klebsiella pneumoniae, UniProt Q6XEC0); experiment: Ki app of β-lactamase inhibition, purified enzyme; assay type: biochemical, Enterobacterales; conditions: 10-minute preincubation; nitrocefin substrate
Protocol: as §1, §2

[14] = parameters: method as in PMID 31871094; conditions: cited from earlier work
[15] = target: KPC-2 (Klebsiella pneumoniae, UniProt Q9F663); experiment: Ki app of β-lactamase inhibition, purified enzyme; assay type: biochemical; conditions: 10-minute preincubation; nitrocefin substrate
Protocol: as §1, §2

[16] = test system: NDM-9 (lysate of NDM-9-producing strain); conditions: read-out: IC50 of inhibition of imipenem hydrolysis in cell lysates; cited from earlier work
[17] = cited from earlier work

Chain of OXA-48 (Q6XEC0 23-265 limits assumed): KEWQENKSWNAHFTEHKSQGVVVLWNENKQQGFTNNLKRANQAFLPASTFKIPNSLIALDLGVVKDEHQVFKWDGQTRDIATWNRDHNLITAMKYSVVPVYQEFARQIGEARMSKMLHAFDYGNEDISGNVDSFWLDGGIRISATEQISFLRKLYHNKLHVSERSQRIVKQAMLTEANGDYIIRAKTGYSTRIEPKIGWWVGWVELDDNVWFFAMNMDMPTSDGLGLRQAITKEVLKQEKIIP
Chain of IMP-1 (P52699 19-246 limits assumed): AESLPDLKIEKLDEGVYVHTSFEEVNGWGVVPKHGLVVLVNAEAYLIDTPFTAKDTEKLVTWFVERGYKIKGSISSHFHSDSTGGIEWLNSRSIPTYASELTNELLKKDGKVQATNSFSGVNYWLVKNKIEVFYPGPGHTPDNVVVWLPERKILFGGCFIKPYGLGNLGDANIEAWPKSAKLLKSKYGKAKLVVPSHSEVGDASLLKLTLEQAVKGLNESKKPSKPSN
Chain of KPC-2 (Q9F663 25-293 limits assumed): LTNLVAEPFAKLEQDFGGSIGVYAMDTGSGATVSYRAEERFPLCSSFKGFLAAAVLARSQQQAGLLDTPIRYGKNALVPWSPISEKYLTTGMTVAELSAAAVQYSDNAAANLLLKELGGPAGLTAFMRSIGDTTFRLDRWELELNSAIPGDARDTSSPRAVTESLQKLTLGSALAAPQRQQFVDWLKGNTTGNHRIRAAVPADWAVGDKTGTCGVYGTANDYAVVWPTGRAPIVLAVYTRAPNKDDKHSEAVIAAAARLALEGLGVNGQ
Chain of IMP-26 (D0V558 entry or part of it): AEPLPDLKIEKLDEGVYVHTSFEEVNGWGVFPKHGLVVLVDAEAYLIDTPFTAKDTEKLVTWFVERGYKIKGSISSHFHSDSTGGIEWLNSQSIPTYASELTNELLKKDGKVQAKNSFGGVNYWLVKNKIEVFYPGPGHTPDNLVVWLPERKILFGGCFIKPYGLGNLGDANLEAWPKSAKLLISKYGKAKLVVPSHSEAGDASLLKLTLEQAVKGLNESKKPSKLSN
Chain of SHV-12 (P0AD64 22-286 L31Q/G234S/E235K): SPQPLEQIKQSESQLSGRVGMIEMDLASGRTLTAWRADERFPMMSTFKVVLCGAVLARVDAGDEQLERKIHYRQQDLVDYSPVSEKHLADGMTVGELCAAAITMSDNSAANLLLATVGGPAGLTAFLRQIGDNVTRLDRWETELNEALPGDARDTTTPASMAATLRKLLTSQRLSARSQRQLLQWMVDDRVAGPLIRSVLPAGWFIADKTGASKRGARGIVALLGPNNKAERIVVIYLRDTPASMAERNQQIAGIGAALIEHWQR

Structure (SMILES) | MIC50 [1] | MIC90 [1] | MIC [2] | MIC [4] | MIC [5] | MIC [6] | Ki [13] | further results
CO/N=C(\C(=O)N[C@@H]1C(=O)N2C(C(=O)[O-])=C(C[N+]3(C)CCCC3)CS[C@H]12)c1csc(N)n1 [FEP, cefepime] | 16 µg/mL (≈ 33.3 µM) | > 64 µg/mL | > 64 µg/mL | 64 µg/mL (≈ 133 µM) | 0.5 µg/mL (≈ 1.04 µM) | 16 µg/mL (≈ 33.3 µM) | – | CLSI approved MIC range [3]: > 64 µg/mL; CLSI approved MIC range [7]: 0.5 to 2 µg/mL
C[C@@H](O)[C@H]1C(=O)N2C(C(=O)O)=C(S[C@@H]3CN[C@H](C(=O)N(C)C)C3)[C@H](C)[C@H]12 [MEM, meropenem] | ≤ 0.03 µg/mL | 0.06 µg/mL (≈ 0.156 µM) | 32 µg/mL (≈ 83.4 µM) | 0.125 µg/mL (≈ 0.326 µM) | 2 µg/mL (≈ 5.22 µM) | 1 µg/mL (≈ 2.61 µM) | – | CLSI approved MIC range [8]: 32 to 256 µg/mL; CLSI approved MIC range [9]: 8.0 to 64 µg/mL
NCCN[C@H]1CC[C@H](CC(=O)N[C@H]2Cc3cccc(C(=O)O)c3OB2O)CC1 [Taniborbactam, taniborbactam] | – | – | – | – | – | – | 6.1 ± 0.7 nM | Ki [10]: > 20000 nM; Ki [11]: > 20000 nM; Ki [12]: 0.15 ± 0.03 nM; concentration at which direct antibacterial activity is lacking [14]: > 512 µg/mL
O=C(O)c1c(F)ccc2c1OB(O)[C@@H]1C[C@H]21 [Xeruborbactam, xeruborbactam] | – | – | – | – | – | – | 0.22 ± 0.08 nM | Ki [15]: 1.4 ± 0.2 nM; IC50 [16]: 1200 ± 100 nM; steady-state plasma concentration ([17]; phase I subjects, 500-mg loading dose then 250 mg every 8 hours by 3-hour infusion): ~ 7 µg/mL; safety and tolerability ([17]; phase I, intravenous or oral (prodrug), doses of 1,000 mg/day or less): safe and well tolerated
